Source: ChEMBL document CHEMBL1201862, “PubChem BioAssay data set” (2004)
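Values below derive from 48-hour exposures of cells grown in 96-well plates, with endpoints linearly interpolated between the two concentrations bracketing the appropriate inhibition level. Here, GI50 denotes the concentration required for 50% inhibition of growth.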 Active and inactive are the calls of the source. No stated cut-off is given here; in the data, active = GI50 up to about 1.1 µM and inactive = higher.

Legend:
Assay in all cases: inhibition of tumour cell growth, NCI panel, 48 h
EKVX = system: EKVX
HCT-15 = system: HCT-15
SW-620 = system: SW-620
CAKI-1 = system: CAKI-1
M14 = system: M14
SR = system: SR
OVCAR-3 = system: OVCAR-3
IGROV-1 = system: IGROV-1
OVCAR-8 = system: OVCAR-8
SF-295 = system: SF-295
HT-29 = system: HT-29
CCRF-CEM = system: CCRF-CEM
SK-MEL-2 = system: SK-MEL-2
HOP-62 = system: HOP-62
SK-MEL-28 = system: SK-MEL-28
U-251 = system: U-251
K562 = system: K562
PC-3 = system: PC-3
MDA-MB-435 = system: MDA-MB-435

Row | SMILES | GI50 (EKVX) | GI50 (HCT-15) [µM] | GI50 (SW-620) | GI50 (CAKI-1) | GI50 (M14) | GI50 (SR) | GI50 (OVCAR-3) | GI50 (IGROV-1) | GI50 (OVCAR-8) | GI50 (SF-295) | GI50 (HT-29) | GI50 (CCRF-CEM) | GI50 (SK-MEL-2) | GI50 (HOP-62) | GI50 (SK-MEL-28) | GI50 (U-251) | GI50 (K562) | GI50 (PC-3) | GI50 (MDA-MB-435)
1 | COC(=O)CCC(=O)C(CC(=O)OC)C(=O)CCC(=O)NCCc1ccccc1 (stereo not given) | > 100 µM (inactive) | > 100 | > 100 µM (inactive) | > 100 µM (inactive) | > 100 µM (inactive) | > 100 µM (inactive) | > 100 µM (inactive) | > 100 µM (inactive) | > 100 µM (inactive) | > 100 µM (inactive) | > 100 µM (inactive) | > 100 µM (inactive) | > 100 µM (inactive) | > 100 µM (inactive) | > 100 µM (inactive) | > 100 µM (inactive) | > 100 µM (inactive) |  | 
2 | N=c1n(CC(=O)NC23CC4CC(CC(C4)C2)C3)c2ccccc2n1CC(=O)NC12CC3CC(CC(C3)C1)C2 | 2.26 µM (inactive) | 1.9 | 1.63 µM (inactive) | 12 µM (inactive) | 1.96 µM (inactive) | 1.87 µM (inactive) | 1.88 µM (inactive) | 1.56 µM (inactive) | 1.68 µM (inactive) | 2.06 µM (inactive) | 1.8 µM (inactive) | 2.8 µM (inactive) | 17.2 µM (inactive) | 2.02 µM (inactive) | 1.79 µM (inactive) | 1.66 µM (inactive) | 2.82 µM (inactive) |  | 
3 | N=C(CC(=O)Nc1ccc(Cl)cc1)Nc1ccccc1 | > 100 µM (inactive) |  | > 100 µM (inactive) | > 100 µM (inactive) | > 100 µM (inactive) | > 100 µM (inactive) | > 100 µM (inactive) | > 100 µM (inactive) | > 100 µM (inactive) | > 100 µM (inactive) | > 100 µM (inactive) | > 10 µM (inactive) | > 100 µM (inactive) | > 100 µM (inactive) | > 100 µM (inactive) | > 100 µM (inactive) | > 100 µM (inactive) |  | 
4 | O=c1c2cc(Br)cc(Br)c2nc(CCCl)n1-c1ccc(O)c([N+](=O)[O-])c1 | 34.5 µM (inactive) | 19 | 19.4 µM (inactive) |  | 17.2 µM (inactive) | 41.5 µM (inactive) | 19.1 µM (inactive) | 22.6 µM (inactive) | 22.9 µM (inactive) | 24.1 µM (inactive) | 20.6 µM (inactive) | 20.7 µM (inactive) | 18.9 µM (inactive) | 18.7 µM (inactive) | 19.7 µM (inactive) | 18.4 µM (inactive) | 33.3 µM (inactive) |  | 
5 | Cc1cc(C)c(C(=O)c2no[n+]([O-])c2C(=O)c2c(C)cc(C)c(Br)c2C)c(C)c1Br | 12 µM (inactive) | 13.5 | 12.9 µM (inactive) | 11.4 µM (inactive) | 11.8 µM (inactive) | 4.27 µM (inactive) | 13.6 µM (inactive) | 6.15 µM (inactive) | 10.9 µM (inactive) | 16.9 µM (inactive) | 12.3 µM (inactive) | 2.59 µM (inactive) | 14.1 µM (inactive) | 18.2 µM (inactive) | 14.4 µM (inactive) | 12.5 µM (inactive) |  |  | 
6 | COC(=O)CNC(=O)CSc1nnc(COc2ccc(Cl)cc2)n1-c1ccccc1 | > 100 µM (inactive) | > 100 | 43.6 µM (inactive) | 16.9 µM (inactive) | 37.3 µM (inactive) |  | 71.8 µM (inactive) | 21 µM (inactive) | 31 µM (inactive) | > 100 µM (inactive) | 40.6 µM (inactive) | 57.4 µM (inactive) | 23.5 µM (inactive) | > 100 µM (inactive) | 26.6 µM (inactive) | 38.6 µM (inactive) | > 100 µM (inactive) | 24 µM (inactive) | 20.8 µM (inactive)
7 | O=C(O)c1ccc2c(c1)C(=O)N(c1ccc(S(=O)(=O)c3ccc(N4C(=O)c5ccc(C(=O)O)cc5C4=O)cc3)cc1)C2=O | > 100 µM (inactive) | > 100 | > 100 µM (inactive) | > 100 µM (inactive) | > 100 µM (inactive) | > 100 µM (inactive) | > 100 µM (inactive) |  | > 100 µM (inactive) | > 100 µM (inactive) | > 100 µM (inactive) | > 100 µM (inactive) | > 100 µM (inactive) | > 100 µM (inactive) | > 100 µM (inactive) | > 100 µM (inactive) | > 100 µM (inactive) |  | 
8 | COc1cc(C(=O)C/C(CCC(=O)Nc2ccccc2[N+](=O)[O-])=N\NC(=O)C(N)=O)ccc1O | > 100 µM (inactive) | > 100 | > 100 µM (inactive) | > 100 µM (inactive) | > 100 µM (inactive) | > 100 µM (inactive) | > 100 µM (inactive) | > 100 µM (inactive) | > 100 µM (inactive) | > 100 µM (inactive) | > 100 µM (inactive) | > 100 µM (inactive) | > 100 µM (inactive) | > 100 µM (inactive) | > 100 µM (inactive) | > 100 µM (inactive) | > 100 µM (inactive) |  | 
9 | COc1cc2ccnc(-c3c4ccccc4c(N)c4c(OC)c(OC)ccc34)c2cc1OC | 10.4 µM (inactive) |  | 2.28 µM (inactive) | 2.65 µM (inactive) |  | 1.8 µM (inactive) |  | 3.24 µM (inactive) | 3.6 µM (inactive) | 3.18 µM (inactive) | 2.64 µM (inactive) | 2.37 µM (inactive) | 4.86 µM (inactive) | 2.96 µM (inactive) | 2.36 µM (inactive) | 3.37 µM (inactive) | 1.55 µM (inactive) |  | 
10 | O=P1(c2ccccc2)CCCCC1 | > 100 µM (inactive) | > 100 | > 10 µM (inactive) |  | > 100 µM (inactive) | > 100 µM (inactive) | > 100 µM (inactive) | > 100 µM (inactive) | > 100 µM (inactive) | > 100 µM (inactive) | > 100 µM (inactive) | > 100 µM (inactive) | > 100 µM (inactive) | > 100 µM (inactive) | > 100 µM (inactive) | > 100 µM (inactive) | > 100 µM (inactive) |  | 
11 | CC(=O)OCC1OC(n2cccnc2=O)C(OC(C)=O)C1OC(C)=O (stereo not given) | > 100 µM (inactive) | > 100 | > 100 µM (inactive) | > 100 µM (inactive) | > 100 µM (inactive) | > 100 µM (inactive) | > 100 µM (inactive) |  | > 100 µM (inactive) |  | > 100 µM (inactive) | > 100 µM (inactive) | > 100 µM (inactive) | > 100 µM (inactive) | > 100 µM (inactive) | > 100 µM (inactive) | > 100 µM (inactive) |  | 
12 | Cc1ccc2nc3c(Cl)cc(=O)cc-3sc2c1 | 22.2 µM (inactive) | 17.5 | 21.6 µM (inactive) | 27.4 µM (inactive) | 22.1 µM (inactive) | > 10 µM (inactive) | 3 µM (inactive) | 19.4 µM (inactive) | 21.2 µM (inactive) | 25.8 µM (inactive) | 29.4 µM (inactive) | 1.96 µM (inactive) | > 10 µM (inactive) |  | 35 µM (inactive) | 20.7 µM (inactive) | 17.6 µM (inactive) |  | 
13 | CCOc1ccccc1N1CSc2nnc(-c3ccccc3)n2C1 |  | > 100 | 49 µM (inactive) | > 100 µM (inactive) | > 100 µM (inactive) | 44.4 µM (inactive) | > 100 µM (inactive) | > 100 µM (inactive) | > 100 µM (inactive) | > 100 µM (inactive) | 73.3 µM (inactive) | 20 µM (inactive) | > 100 µM (inactive) | > 100 µM (inactive) | > 100 µM (inactive) | > 100 µM (inactive) | > 100 µM (inactive) | > 100 µM (inactive) | > 100 µM (inactive)
14 | CC(=O)Nc1ccccc1NC1CC(C)N(c2ccccc2)N1C(C)=O (stereo not given) | > 10 µM (inactive) | > 10 | > 10 µM (inactive) | > 10 µM (inactive) | > 10 µM (inactive) | > 10 µM (inactive) |  | > 10 µM (inactive) | > 10 µM (inactive) | > 10 µM (inactive) | > 10 µM (inactive) | > 10 µM (inactive) |  | > 10 µM (inactive) | > 10 µM (inactive) |  | > 10 µM (inactive) | > 10 µM (inactive) | > 10 µM (inactive)
15 | CCOC(=O)c1ccc(-n2c(SCC)nc3sc(C)c(C)c3c2=O)cc1 | > 100 µM (inactive) | > 100 | > 100 µM (inactive) | > 100 µM (inactive) | > 100 µM (inactive) | > 100 µM (inactive) | 40.6 µM (inactive) | > 100 µM (inactive) | 68.7 µM (inactive) | > 100 µM (inactive) | > 100 µM (inactive) | > 100 µM (inactive) | > 100 µM (inactive) | > 100 µM (inactive) | > 100 µM (inactive) | > 100 µM (inactive) | > 100 µM (inactive) |  | 
16 | COc1cc(C2c3cccc4cccc(c34)C3CCC(=O)N32)cc(O)c1O (stereo not given) | 26.7 µM (inactive) | 23.7 | 28.6 µM (inactive) |  | 43.7 µM (inactive) | 9.71 µM (inactive) | 18.1 µM (inactive) | 26.9 µM (inactive) | 27.9 µM (inactive) | 39.9 µM (inactive) | 48.1 µM (inactive) | 10.9 µM (inactive) | > 50 µM (inactive) | 47.1 µM (inactive) | 33.5 µM (inactive) | 19 µM (inactive) | 10.8 µM (inactive) | 34.4 µM (inactive) | 19.2 µM (inactive)
17 | COc1cc(C2c3cc4c(cc3[C@@H](Nc3ccc(N(C)C)cc3)[C@H]3COC(=O)C23)OCO4)cc(OC)c1O (stereo not given in full) | 0.456 µM (active) | 0.838 | 0.807 µM (active) | 0.141 µM (active) | 0.327 µM (active) | 0.0127 µM (active) | 8.04 µM (inactive) | 3.56 µM (inactive) | 0.587 µM (active) | 0.122 µM (active) | 1.13 µM (inactive) | 0.153 µM (active) | 2.37 µM (inactive) | 0.103 µM (active) | 3.79 µM (inactive) | 0.149 µM (active) | 0.537 µM (active) |  | 
